In publication PMC7167990, “Therapeutic Effects of Atranorin towards the Proliferation of Babesia and Theileria Parasites” (Pathogens, 2020):
Blank lines part the entries; values can stand above or below the compound they belong to.

Assays:
B. microti = B. microti in vivo; cited from earlier work
B. bigemina = assay: In vitro growth inhibition, Babesia fluorescent (SYBR Green I) assay; assay type: cell-based; settings: 96 h, 4 days culture, mean of triplicate experiments
Method: (§1) Babesia parasite was incubated and maintained at 37 °C in a humidifying chamber under 5% CO2, 5% O2, and 90% N2 atmosphere using a microaerophilic stationary-phase culture for conducting the in vitro experiment. Briefly, Germany strain Babesia divergens was cultured in cattle RBCs in Roswell Park Memorial Institute 1640 (RPMI 1640; Sigma-Aldrich, St. Louis, MO, USA) medium replenished with 40% cattle serum, while culture medium 199 (M199; Sigma-Aldrich) was utilized for the Argentina strain B. bigemina and Texas strain B. bovis, and T. equi USDA strain cultured in cattle RBCs supplemented with 40% cattle serum and horse RBCs maintained in hypoxanthine (MP Biomedicals, Santa Ana, CA, USA; final concentration 13.6 μg/mL) and 40% horse serum, respectively. GIT medium complemented with 40% horse serum was used as a growth medium for the USDA strain of B. caballi cultured in horse RBCs. To ensure free-bacterial contamination, amphotericin B (0.15 μg/mL) (Sigma-Aldrich), streptomycin (60 U/mL) and penicillin G (60 U/mL) were added to all medium.
(§2) The Babesia fluorescent assay was carried out on the in vitro culture as previously reported elsewhere to assess the growth of the inhibitory effectiveness of ATR and the combination treatment with DA, CF, and AV. Briefly, in three separate trials, using two-fold dilution, different concentrations of ATR, DA, CF, and AV were prepared in the culture medium and added in 96-well plates in triplicate with 1% parasitemia for T. equi, B. divergens and B. caballi at 5% HCT, while for B. bigemina and B. bovis using 2.5% HCT. The drug combined efficacy was conducted at the same time with the single-treatment assay in accordance with the Chou–Talalay method. […] On day four of culture, an aliquot (100 µL) of lysis buffer mixed with 0.2μL/mL SG1 was added per well; subsequently, it was covered with aluminum foil to prevent exposure to light. After incubation for 6-h at 37 °C, fluorescence readings were acquired on a spectrofluorimeter (Fluoroskan Ascent, Thermo Fisher Scientific, Oceanside, CA, USA) with a 485 nm excitation wavelength and a 518 nm emission wavelength.
(§3) The IC50 values of ATR, DA, CF, and AV were established from the in vitro growth inhibition by nonlinear regression curve fit on a GraphPad Prism (GraphPad Software Inc., San Diego, CA, USA). […] The significant variations (p < 0.05) among group mean values on parasitemia and one-way ANOVA Tukey’s test in GraphPad Prism version 5.0 was used to analyze hematology profiles in mice infected with B. microti.

B. bovis = assay: as above; assay type: cell-based; settings: Bos taurus, 96 h, 4 days culture, mean of triplicate experiments
Method: as §1, §2, §3

B. divergens = assay: as above; assay type: cell-based; settings: 96 h, 4 days culture, mean of triplicate experiments
Method: as §1, §2, §3

T. equi = assay: as above; assay type: cell-based; settings: 96 h, 4 days culture, mean of triplicate experiments
Method: as §1, §2, §3

MDBK cells = assay: Cytotoxicity assay (CCK-8 cell viability); assay type: cell-based, bovine
Method: (§4) Cultures of human foreskin fibroblast (HFF; HFF-1 ATCC® SCRC-1041™), Madin–Darby bovine kidney (MDBK; ECACC) and mouse embryonic fibroblast (NIH/3T3; ATCC® CRL-1658™) cells were retrieved from −80 °C stock and cultured continuously at 37 °C under atmosphere 5% CO2 in our laboratory. The NIH/3T3 and HFFs cells were maintained in Dulbecco Modified Eagle’s Medium (DMEM; Gibco, Grand Island, NY, USA), while MDBK cell line grown in Minimum Essential Medium Eagle (MEM; Gibco). Each medium was treated with 0.5% penicillin/streptomycin (Gibco), 10% inactivated fetal bovine serum and 2 mM glutamine. Every 72 to 96 h, the medium was replaced, and once 80% confluence was reached, the cell collection was performed by sub-culture protocol. To confirm the absence of mycoplasma contamination, 4,6-diamidino-2-phenylindole dihydrochloride stain (Sigma-Aldrich) was used.
(§5) The cell viability test was conducted in a 96-well plate as described elsewhere. Briefly, an aliquot of (100 µL) cells was implanted at a concentration of 5 × 10^4 cells/mL in DMEM or MEM with fetal bovine serum and incubated overnight under atmosphere 5% CO2 at 37 °C for attachment. Using two-fold dilutions, aliquots (10 µL) of drugs were added in triplicate per well to attain final concentrations of 50 to 1000 µM and further incubated for 24 h. The positive control wells containing cells mixed with the medium in 0.4% DMSO, whereas the negative control wells containing culture medium only. After a 24-h incubation, Cell Counting Kits-8 (CCK-8, 10 µL) was added to each well and then plate incubation was conducted for an additional 3 h and a microplate reader was used to assess the absorbance at 450 nm.

NIH/3T3 cells = assay: Cytotoxicity assay (CCK-8 cell viability); assay type: cell-based, mouse
Method: as §4, §5

HFFs = assay: Cytotoxicity assay (CCK-8 cell viability); assay type: cell-based, human
Method: as §4, §5

SMILES: CC1=CC(=O)C(C(C)C)=CC1=O [thymoquinone]
chemotherapeutic effect (B. microti): 37%

SMILES: COc1cc2c[n+](C)c3c4cc5c(cc4ccc3c2cc1OC)OCO5 [nitidine chloride]
chemotherapeutic effect (B. microti): 91%

SMILES: CC1COc2c(N3CCN(C)CC3)c(F)cc3c(=O)c(C(=O)O)cn1c23 (stereo not drawn) [ofloxacin]
chemotherapeutic effect (B. microti): 49%

SMILES: CCn1cc(C(=O)O)c(=O)c2cc(F)c(N3CCNCC3)cc21 [norfloxacin]
chemotherapeutic effect (B. microti): 31%

SMILES: CO[C@H]1/C=C\C=C(/C)C(=O)NC2=CC(=O)C(NCCN(C)C)=C(C[C@@H](C)C[C@H](OC)[C@H](O)[C@@H](C)/C=C(\C)[C@@H]1OC(N)=O)C2=O [17-DMAG]
chemotherapeutic effect (B. microti): 89%

SMILES: O=c1oc2c(O)c(O)cc3c(=O)oc4c(O)c(O)cc1c4c23 [ellagic acid]
chemotherapeutic effect (B. microti): 49%

SMILES: CCn1cc(C(=O)O)c(=O)c2cc(F)c(N3CCNCC3)nc21 [enoxacin]
chemotherapeutic effect (B. microti): 34%

IC50 (B. bigemina): 5.73 ± 1.9 µM
IC50 (B. bovis): 8.24 ± 1.7 µM
IC50 (B. divergens): 13.8 ± 4.3 µM
IC50 (T. equi): 2.88 ± 0.9 µM
SMILES: CC(C)/N=c1\cc2n(-c3ccc(Cl)cc3)c3ccccc3nc-2cc1Nc1ccc(Cl)cc1 [CF, clofazimine]
EC50 (MDBK cells; Bos taurus, MDBK cells, 24 h, CCK-8): 34.7 ± 3.4 µM
Selective Index MDBK (MDBK cells; EC50 MDBK / IC50 B. bigemina): 6.1
Selective Index MDBK (MDBK cells; EC50 MDBK / IC50 B. bovis): 4.2
Selective Index MDBK (MDBK cells; EC50 MDBK / IC50 B. caballi): 4.4
Selective Index MDBK (MDBK cells; EC50 MDBK / IC50 B. divergens): 2.5
Selective Index MDBK (MDBK cells; EC50 MDBK / IC50 T. equi): 12.1
Selective Index NIH/3T3 (NIH/3T3 cells; EC50 NIH/3T3 / IC50 B. bigemina): ˃17.5
Selective Index NIH/3T3 (NIH/3T3 cells; EC50 NIH/3T3 / IC50 B. bovis): ˃12.1
Selective Index NIH/3T3 (NIH/3T3 cells; EC50 NIH/3T3 / IC50 B. caballi): ˃12.6
Selective Index NIH/3T3 (NIH/3T3 cells; EC50 NIH/3T3 / IC50 B. divergens): ˃7.2
Selective Index NIH/3T3 (NIH/3T3 cells; EC50 NIH/3T3 / IC50 T. equi): ˃34.7
EC50 (NIH/3T3 cells; Mus musculus, NIH3T3, NIH/3T3 cells, 24 h, CCK-8, read-out: EC50 NIH/3T3): > 100 µM
Selective Index HFFs (HFFs; EC50 HFFs / IC50 B. bigemina): ˃17.5
Selective Index HFFs (HFFs; EC50 HFFs / IC50 B. bovis): ˃12.1
Selective Index HFFs (HFFs; EC50 HFFs / IC50 B. caballi): ˃12.6
Selective Index HFFs (HFFs; EC50 HFFs / IC50 B. divergens): ˃7.2
Selective Index HFFs (HFFs; EC50 HFFs / IC50 T. equi): ˃34.7
EC50 (HFFs; Homo sapiens, HFFs, 24 h, CCK-8): > 100 µM

SMILES: C=CCS[S+]([O-])CC=C (stereo not drawn) [allicin]
chemotherapeutic effect (B. microti): 58.3%
